≈ marks a conversion by molar mass, not a printed value.
Experiments:
Assay type in all cases: cell-based
[1] = test system: Trypanosoma brucei rhodesiense STIB 900; test: Trypanosoma brucei whole cell assay, primary screen; conditions: read-out: ICo
Description: The bloodstream form trypomastigotes of the strains a and c are maintained in MEM medium with Earle's salts supplemented with 25 mM HEPES, 1 g/l additional glucose, 1% MEM nonessential amino acids (100×), 0.2 mM 2-mercaptoethanol, 2 mM Na-pyruvate, 0.1 mM hypoxanthine and 15% heat inactivated horse serum.
All cultures and assays are conducted at 37° C. under an atmosphere of 5% CO2 in air.
After use the stocks are kept at −20° C. For the assays, the compound is further diluted to the appropriate concentration using complete medium.
Assays are performed in 96-well microtiter plates, each well containing 100 μl of culture medium with 8×10^3 bloodstream forms with or without a serial drug dilution. The highest concentration for the test compounds is 90 μg/ml. Seven 3-fold dilutions are used covering a range from 90 μg/ml to 0.123 μg/ml. Each drug is tested in duplicate and each assay is repeated at least once. […]
10 μl of Alamar Blue (12.5 mg resazurin dissolved in 100 ml distilled water) are now added to each well and the plates incubated for another 2 hours. Then the plates are read with a Spectramax Gemini XS microplate fluorometer (Molecular Devices Cooperation, Sunnyvale, Calif., USA) using an excitation wave length of 536 nm and an emission wave length of 588 nm. Data are analysed using the microplate reader software Softmax Pro (Molecular Devices Cooperation, Sunnyvale, Calif., USA). […]

[2] = test system: Trypanosoma brucei gambiense STIB 930; test: Trypanosoma brucei whole cell assay, secondary screen STIB 930
Description: The bloodstream form trypomastigotes of strain b are maintained in MEM medium with Earle's salts supplemented with 25 mM HEPES, 1 g/l additional glucose, 1% MEM non-essential aminoacids (100×), 0.2 mM 2-mercaptoethanol, 2 mM Na-pyruvate, 0.1 mM hypoxanthine, 0.05 mM bathocuproine disulphonic acid, 0.15 mM L-cysteine and 15% heat inactivated pooled human serum.
Assays are performed in 96-well microtiter plates, each well containing 100 μl of culture medium with 8×10^3 bloodstream forms with or without a serial drug dilution. The highest concentration for the test compounds is 90 μg/ml. Seven 3-fold dilutions are used covering a range from 90 μg/ml to 0.123 μg/ml. […]

T. b. brucei STIB 950 = test: Trypanosoma brucei whole cell assay, secondary screen STIB 950; conditions: STIB950
[3] = test system: Leishmania donovani strain MHOM/ET/67/L82; test: Leishmaniasis macrophage in vitro screening model; conditions: amastigotes in murine macrophages, n=4
Description: The Leishmania donovani strain MHOM/ET/67/L82 obtained from Dr. S. Croft, London) is used. The strain is maintained in the Syrian Golden hamster. Amastigotes are collected from the spleen of an infected hamster Amastigotes are grown in axenic culture at 37° C. in SM medium (Cunningham I., J. […] Primary peritoneal macrophages from NMRI mice are collected 1 day after a macrophage production stimulation with an i.p injection of 2 ml of a 2% potato starch suspension (FLUKA, Switzerland) All cultures and assays are done at 37° C. under an atmosphere of 5% CO2 in air. […] After use the stocks are kept at -20° C. For the assays, the compound is further diluted in serum-free culture medium and finally to the appropriate concentration in complete medium. Assays are performed in sterile 16-well chamber slides (LabTek, Nalgene/Nunc Int.) To each well 100 μl of a murine macrophage suspension (4×10^5/ml) in RPMI 1640 (containing bicarbonate and HEPES) supplemented with 10% heat inactivated fetal bovine serum is added. […] Infected and non-infected macrophages are counted for the control cultures and the ones exposed to the serial drug dilutions. The infection rates are determined. The results are expressed as % reduction in parasite burden compared to control wells, and the IC50 calculated by linear regression analysis. […]

[4] = test system: Leishmania donovani strain MHOM/ET/67/L82; test: Leishmania donovani axenic amastigote assay; conditions: axenic amastigotes

`Nc1nc(N)nc(Nc2ccc([As]3SCC(CO)S3)cc2)n1` (centres unmarked) [melarsoprol] showed an IC50 [1] of 1.6 ng/mL, an IC50 [2] of 4.2 ng/mL and an IC50 (T. b. brucei STIB 950) of 2.8 ng/mL.

For `CCCCCCCCCCCCCCCCOP(=O)([O-])OCC[N+](C)(C)C` [Miltefosine], the IC50 [3] was 0.325 µg/mL (≈ 0.797 µM) and the IC50 [4] was 0.12 µg/mL (≈ 0.294 µM).
